# Patent US20250277012A1 (Protagonist Therapeutics, Inc., priority 2021, published 2025)
# Starred links: 1 amine or outer side, 2 acyl side, 3 side chain; linkers in the order of their positions; H or OH if unused. Positions of bridges follow the written chain, without caps; N, C: chain ends. Non-standard residues stand in square brackets, D forms with d. Residues, ends and D or L forms follow the SMILES beside them. Groups on a side chain read outwards from the residue. *: point of attachment. X1 = C[N+](C)(CCNC(=O)CCCCCCCCCCCCCCCCC(=O)O)CC(=O)*; X5 = CCCCCCCCCCCCCCCC(=O)NCC[N+](C)(C)CC(=O)*; Dip = N[C@H](C(=O)O)C(c1ccccc1)c1ccccc1; γGlu = O=C(O)[C@H](CCC(=O)[*:2])N[*:1]; Palmitoyl = CCCCCCCCCCCCCCCC(=O)*; NMeE = CN[C@@H](CCC(=O)O)C(=O)O; β3hF = N[C@H](CC(=O)O)Cc1ccccc1; NMeK = CN[C@@H](CCCCN)C(=O)O; Tle = CC(C)(C)[C@H](N)C(=O)O; Isovaleryl = CC(C)CC(=O)*; AEEA = NCCOCCOCC(=O)O; Ahx = NCCCCCC(=O)O
# Molecular target: T1, ferroportin (Homo sapiens, UniProt Q9NP59)
# T1 sequence (Q9NP59 1-571): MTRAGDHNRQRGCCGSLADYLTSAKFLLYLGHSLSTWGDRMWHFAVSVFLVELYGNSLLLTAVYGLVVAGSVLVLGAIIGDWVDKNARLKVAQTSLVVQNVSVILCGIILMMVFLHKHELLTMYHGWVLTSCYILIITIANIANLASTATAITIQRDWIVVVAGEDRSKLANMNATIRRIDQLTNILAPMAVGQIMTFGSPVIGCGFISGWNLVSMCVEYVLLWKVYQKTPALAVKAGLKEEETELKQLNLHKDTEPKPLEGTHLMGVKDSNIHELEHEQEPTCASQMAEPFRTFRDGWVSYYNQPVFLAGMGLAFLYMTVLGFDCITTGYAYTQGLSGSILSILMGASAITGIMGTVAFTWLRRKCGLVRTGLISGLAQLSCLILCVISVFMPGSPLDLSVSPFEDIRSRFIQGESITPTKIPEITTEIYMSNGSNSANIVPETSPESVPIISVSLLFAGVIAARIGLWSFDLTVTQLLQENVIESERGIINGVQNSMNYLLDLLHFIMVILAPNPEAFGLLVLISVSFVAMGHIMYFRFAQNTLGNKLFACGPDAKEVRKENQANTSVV
# Assay: T47D cell-based ferroportin internalization assay in presence of mouse serum albumin (MSA)
# Parameters: a human breast carcinoma adherent cell line which endogenously expresses ferroportin; host or cells: T47D
# Details: Table 6E; T47D internalization assay with MSA
# Procedure, shortened: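 Peptide potency for inducing ferroportin internalization was measured in T47D cells in the presence of serum albumin. Cells grown in RPMI with fetal bovine serum were seeded in 96-well plates at 80-100 k cells per well in 100 ul and rested overnight. Dilution series of test peptides were preincubated 30 min at room temperature, then added to the cells after the medium was aspirated.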
row,SMILES,IC50
1,CCCCCCCCCCCCCCCC(=O)N[C@@H](CCC(=O)NCCCC[C@@H](C(=O)N[C@H](CC(=O)N[C@H](CCCCN)C(N)=O)Cc1ccccc1)N(C)C(=O)[C@@H]1CSSC[C@H](NC(=O)[C@@H]2CCCN2C(=O)[C@@H](NC(=O)[C@H](Cc2cnc[nH]2)NC(=O)[C@@H](NC(=O)[C@H](CCC(=O)O)NC(=O)CC(C)C)[C@@H](C)O)C(c2ccccc2)c2ccccc2)C(=O)N1)C(=O)O [compound 223] (Isovaleryl-ETH[Dip]PCC[NMeK]([γGlu-Palmitoyl])[β3hF][dK]-NH2; disulfide 6-7),1 to 10 nM
2,CCCCCCCCCCCCCCCC(=O)NCC[N+](C)(C)CC(=O)NCCCCCC(=O)NCCCC[C@@H](C(=O)N[C@H](C(=O)N[C@H](CCCCN)C(N)=O)C(c1ccccc1)c1ccccc1)N(C)C(=O)[C@@H]1CSSC[C@H](NC(=O)[C@@H]2CCCN2C(=O)[C@@H](NC(=O)[C@H](Cc2cnc[nH]2)NC(=O)[C@@H](NC(=O)[C@H](CCC(=O)O)N(C)C(=O)CC(C)C)[C@@H](C)O)C(c2ccccc2)c2ccccc2)C(=O)N1 [compound 167] (Isovaleryl-[NMeE]TH[Dip]PCC[NMeK]([Ahx-X5])[Dip][dK]-NH2; disulfide 6-7),1 to 10 nM
3,CC(C)CC(=O)N[C@H]1CCC(=O)NCCCC[C@H](C(N)=O)NC(=O)[C@H](C(c2ccccc2)c2ccccc2)NC(=O)[C@H](CCCCNC(=O)CCCCCNC(=O)C[N+](C)(C)CCNC(=O)CCCCCCCCCCCCCCCCC(=O)O)N(C)C(=O)[C@@H]2CSSC[C@H](NC(=O)[C@@H]3CCCN3C(=O)[C@H](C(c3ccccc3)c3ccccc3)NC(=O)[C@H](Cc3cnc[nH]3)NC(=O)[C@H]([C@@H](C)O)NC1=O)C(=O)N2 [compound 193] (Isovaleryl-ETH[Dip]PCC[NMeK]([Ahx-X1])[Dip][dK]-NH2; lactam 1-10; disulfide 6-7),10 to 100 nM
4,COC(=O)CC[C@H](NC(=O)CC(C)C)C(=O)N[C@H](C(=O)N[C@@H](Cc1c[nH]cn1)C(=O)N[C@H](C(=O)N1CCC[C@H]1C(=O)N[C@H]1CSSC[C@@H](C(=O)N[C@H](CCCCNC(=O)CCCCCNC(=O)C[N+](C)(C)CCNC(=O)CCCCCCCCCCCCCCCCC(=O)O)C(=O)N[C@H](CC(=O)N[C@H](CCCCN)C(N)=O)Cc2ccccc2)NC1=O)C(c1ccccc1)c1ccccc1)[C@@H](C)O [compound 213] (Isovaleryl-E(OMe)TH[Dip]PCC[dK]([Ahx-X1])[β3hF][dK]-NH2; disulfide 6-7),10 to 100 nM

# The remaining lines, values ahead:
row,IC50,SMILES
1,10 to 100 nM,COC(=O)CC[C@H](NC(=O)CC(C)C)C(=O)N[C@H](C(=O)N[C@@H](Cc1c[nH]cn1)C(=O)N[C@H](C(=O)N1CCC[C@H]1C(=O)N[C@H]1CSSC[C@@H](C(=O)N[C@H](CCCCNC(=O)CCCCCNC(=O)C[N+](C)(C)CCNC(=O)CCCCCCCCCCCCCCCCC(=O)O)C(=O)N[C@H](C(=O)N[C@H](CCCCN)C(N)=O)C(c2ccccc2)c2ccccc2)NC1=O)C(c1ccccc1)c1ccccc1)[C@@H](C)O [compound 208] (Isovaleryl-E(OMe)TH[Dip]PCC[dK]([Ahx-X1])[Dip][dK]-NH2; disulfide 6-7)
2,10 to 100 nM,COC(=O)CC[C@H](NC(=O)CC(C)C)C(=O)N[C@H](C(=O)N[C@@H](Cc1c[nH]cn1)C(=O)N[C@H](C(=O)N1CCC[C@H]1C(=O)N[C@H]1CSSC[C@@H](C(=O)N[C@H](CCCCNC(=O)CCCCCNC(=O)C[N+](C)(C)CCNC(=O)CCCCCCCCCCCCCCCCC(=O)O)C(=O)N[C@H](C(=O)N[C@H](C(N)=O)C(C)(C)C)C(c2ccccc2)c2ccccc2)NC1=O)C(c1ccccc1)c1ccccc1)[C@@H](C)O [compound 212] (Isovaleryl-E(OMe)TH[Dip]PCC[dK]([Ahx-X1])[Dip][Tle]-NH2; disulfide 6-7)
3,10 to 100 nM,CC(C)CC(=O)N[C@@H](CCC(=O)O)C(=O)N[C@H](C(=O)N[C@@H](Cc1c[nH]cn1)C(=O)N[C@H](C(=O)N1CCC[C@H]1C(=O)N[C@H]1CSSC[C@@H](C(=O)N(C)[C@@H](CCCCNC(=O)COCCOCCNC(=O)COCCOCCNC(=O)C[N+](C)(C)CCNC(=O)CCCCCCCCCCCCCCCCC(=O)O)C(=O)N[C@H](C(=O)N[C@H](CCCCN)C(N)=O)C(c2ccccc2)c2ccccc2)NC1=O)C(c1ccccc1)c1ccccc1)[C@@H](C)O [compound 158] (Isovaleryl-ETH[Dip]PCC[NMeK]([AEEA-AEEA-X1])[Dip][dK]-NH2; disulfide 6-7)
